In this assay the test system is PC-3 multi-cell spheroids, viability. Briefly: Anticancer human tumor PC-3 cell line growth inhibition [IpAb].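 On all read-outs here: spheroids exposed to compounds for 7 days before readout.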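 On viability, T/C: 100% = DMSO vehicle control wells.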 The settings on record: for viability, T/C: stronger effect = lower value. From the text:
Combinatorial screen of targeted agents with ipatasertib and abemaciclib in multi-cell type tumor spheroids
A high-throughput screen of multi-cell type tumor spheroids was designed to identify active combinations of targeted small molecules and ipatasertib or abemaciclib. Complex spheroids include a stromal component modeled by human endothelial cells (HUVEC) and fibroblasts modeled by human mesenchymal stem cells (MSCs). The concentration ranges selected for each drug and investigational agent were based upon clinically achievable concentrations if the clinical Cmax of the agent was known.
Compounds. The drugs and investigational agents: ipatasertib (NSC767898), abemaciclib(NSC768073), selumetinib (NSC741078), trametinib (758246), adavosertib (NSC754352), everolimus (NSC733504), sapanisertib (NSC764658), vemurafenib (NSC761431), venetoclax (NSC766270), copanlisib (NSC809693), apelisib (NSC765974), palbociblib (NSC758247), vemurafenib (NSC761431), dabrafenib (NSC764134), ravoxertinib (NSC781343), BMS-387032 (NSC767048), sotorasib (NSC818433), talazoparib (NSC767125) and afursertib (NSC778305), were obtained from the National Cancer Institute (NCI) Developmental Therapeutics Program Chemical Repository. The FDA-approved anticancer drug set is available from the NCI Developmental Therapeutics Program. […] The stock solutions were prepared in dimethyl sulfoxide (DMSO, Sigma-Aldrich, St. Louis, MO, cat. D2650) at 800-fold the tested concentration and stored at -70 degrees C prior to their use. All drugs and investigational agents were tested over a range starting from a high concentration at or near the clinical Cmax and decreasing in half-log increments. If the clinical Cmax for an agent had not been determined, the highest concentration tested was 10 microM.
NCI60 Cell Culture. NCI60 cell lines were obtained from the NCI Developmental Therapeutics Program Tumor Repository. For each lot of cells, the Repository performed Applied Biosystems AmpFLSTR Identifiler testing with PCR amplification to confirm consistency with the published Identifier STR profile for each cell line. Cells were kept in continuous culture for no more than 20 passages. The optimal seeding densities for each of the cell lines at each time point assessed were determined prior to performing the concentration response studies. Briefly, the NCI60 human tumor lines were grown as monolayers in RPMI 1640 medium supplemented with 10% FBS and 2 mmol/L L-glutamine.
An additional 9 lines were from the NCI60 cell line panel including MDA-MB-231 breast carcinoma, MDA-MB-468 breast carcinoma, MCF7 breast carcinoma, Hs578T breast carcinoma, MALME-3M melanoma, SK-MEL-2 melanoma, SK-OV-3 ovarian carcinoma, DU-145 prostate carcinoma, PC-3 prostate carcinoma, all cell lines along with major genetic alterations are listed on Table 2. Pooled donor human umbilical vein endothelial cells (HUVEC, Lonza, cat. CC-2519) and human mesenchymal stem cells (hMSC, Lonza, cat. PT-2501) were purchased from Lonza (Walkersville, MD).
PDMR cell lines were grown in complete medium (DC medium): Dulbecco's modified Eagle's medium (DMEM)/F12 supplemented with 5% fetal bovine serum (FBS), 2 mM L-glutamine, 100 U/mL penicillin and 100 µg/ml streptomycin, 0.4 µg/ml hydrocortisone, 10 ng/ml epidermal growth factor (EGF) recombinant human protein, 24 µg/mL adenine, and 0.1 mg/mL primocin. During culture from frozen stock vials, PDMR cells were cultured in the same medium containing 10 µM Y-27632 (see Table 3). The PDCs were cultured in complete DMEM/F12 media without 10 microM Y-27632 dihydrochloride for at least two passages prior to the screen. The pooled donor HUVEC and hMSC were cultured in endothelial cell growth medium 2 (PromoCell, Heidelberg, Germany, cat. C-22011) and mesenchymal stem cell growth medium 2 (PromoCell, cat. C-28009), respectively. For all experiments, HUVEC and hMSC were used at passages </=5.
[…]

The mark [1] stands for this setting: curve of first compound, second compound 0.1 µM.
Where [2] appears, read: curve of first compound, second compound 0.316 µM.
[3] abbreviates: curve of first compound, second compound 1 µM.
Where [4] appears, read: curve of first compound, second compound 3.16 µM.
Where [5] appears, read: curve of first compound, second compound 10 µM.
Setting [6] is: second compound 0.1 µM, first compound 0.0316 µM.
Where [7] appears, read: second compound 0.1 µM, first compound 0.1 µM.
The mark [8] stands for this setting: second compound 0.1 µM, first compound 0.316 µM.
Where [9] appears, read: second compound 0.1 µM, first compound 1 µM.
[10] abbreviates: second compound 0.316 µM, first compound 0.0316 µM.
Setting [11] is: second compound 0.316 µM, first compound 0.1 µM.
Where [12] appears, read: second compound 0.316 µM, first compound 0.316 µM.
Setting [13] is: second compound 0.316 µM, first compound 1 µM.
[14] abbreviates: second compound 1 µM, first compound 0.0316 µM.
Where [15] appears, read: second compound 1 µM, first compound 0.1 µM.
[16] abbreviates: second compound 1 µM, first compound 0.316 µM.
[17] abbreviates: second compound 1 µM, first compound 1 µM.
Where [18] appears, read: second compound 3.16 µM, first compound 0.0316 µM.
Setting [19] is: second compound 3.16 µM, first compound 0.1 µM.
[20] abbreviates: second compound 3.16 µM, first compound 0.316 µM.
[21] abbreviates: second compound 3.16 µM, first compound 1 µM.
Setting [22] is: second compound 10 µM, first compound 0.0316 µM.
[23] abbreviates: second compound 10 µM, first compound 0.1 µM.
[24] abbreviates: second compound 10 µM, first compound 0.316 µM.
Setting [25] is: second compound 10 µM, first compound 1 µM.

Where “and” joins values, the source holds several entries; their conditions need not be identical. Equal entries are not always repeated.

Regarding `Cn1cnc2c(F)c(Nc3ccc(Br)cc3Cl)c(C(=O)NOCCO)cc21`, the viability, T/C (compound 0.00949 µM) was 105% and 99.8%; the viability, T/C (compound 0.03 µM) is 113% and 107%; the viability, T/C (compound 0.0949 µM) was 96.4% and 95.3%; the viability, T/C (compound 0.3 µM) was 85.1% and 96%; the viability, T/C (compound 0.949 µM) was 91.9% and 91%; the viability, T/C (compound 3 µM) is 65.1% and 73.2%. Further, under “curve of compound”, the 50% inhibitory concentration (IC50) is over 3000 nM.
On to `Cc1nc(NC(=O)N2CCCC2C(N)=O)sc1-c1ccnc(C(C)(C)C(F)(F)F)c1` (stereo unspecified), for which the viability, T/C by setting is: (compound 0.0316 µM) 82.8% and 73.3%; (compound 0.1 µM) 78.5% and 59.6%; (compound 0.316 µM) 50.1% and 53.2%; (compound 1 µM) 49.3% and 48%; (compound 3.16 µM) 44% and 47.7%; (compound 10 µM) 15.2% and 14.2%. Also, the IC50 (curve of compound) is 849 nM and 1070 nM.
With `Cc1nc(NC(=O)N2CCCC2C(N)=O)sc1-c1ccnc(C(C)(C)C(F)(F)F)c1` (stereo unspecified) + CC(C)NCC(C(=O)N1CCN(c2ncnc3c2C(C)CC3O)CC1)c1ccc(Cl)cc1, the IC50 runs as follows: under setting [1], 955 nM; under setting [2], under 31.6 nM; under setting [3], under 31.6 nM; under setting [4], under 31.6 nM; under setting [5], under 31.6 nM. Also, the viability, T/C is 60.7% under setting [6]; 51.8% under setting [7]; 47.8% under setting [8]; 49.5% under setting [9]; 41.8% (second compound 0.1 µM, first compound 3.16 µM); 10.6% (second compound 0.1 µM, first compound 10 µM). The viability, T/C by setting is: under setting [10], 43.7%; under setting [11], 44.4%; under setting [12], 39.2%; under setting [13], 30.2%; (second compound 0.316 µM, first compound 3.16 µM) 24.6%; (second compound 0.316 µM, first compound 10 µM) 9.66%. In addition, the viability, T/C was 26.5% under setting [14]; 24.1% under setting [15]; 17.8% under setting [16]; 15.8% under setting [17]; 12.5% (second compound 1 µM, first compound 3.16 µM); 5.72% (second compound 1 µM, first compound 10 µM). The viability, T/C is 14.2% under setting [18]; 14.7% under setting [19]; 11.8% under setting [20]; 11.4% under setting [21]; 8.54% (second compound 3.16 µM, first compound 3.16 µM); 3.24% (second compound 3.16 µM, first compound 10 µM). Further, the viability, T/C under setting [22] is 13.4%; the viability, T/C under setting [23] was 12.8%; the viability, T/C under setting [24] is 10.5%; the viability, T/C under setting [25] is 9.02%; the viability, T/C (second compound 10 µM, first compound 3.16 µM) was 7.87%; the viability, T/C (second compound 10 µM, first compound 10 µM) was 2.4%.
As for `CC(=O)c1c(C)c2cnc(Nc3ccc(N4CCNCC4)cn3)nc2n(C2CCCC2)c1=O`, the viability, T/C (compound 0.000949 µM) was 95.8% and 105%; the viability, T/C (compound 0.003 µM) was 96.3% and 95.7%; the viability, T/C (compound 0.00949 µM) is 88.9% and 83.5%; the viability, T/C (compound 0.03 µM) is 63.2% and 72.3%; the viability, T/C (compound 0.0949 µM) is 56.1% and 64.3%; the viability, T/C (compound 0.3 µM) was 62.9% and 61.2%. Further, the IC50 (curve of compound) was over 300 nM.
With `COc1c(OCCCN2CCOCC2)ccc2c3n(c(=NC(=O)c4cnc(N)nc4)nc12)CCN3` + CC(C)NCC(C(=O)N1CCN(c2ncnc3c2C(C)CC3O)CC1)c1ccc(Cl)cc1, the IC50 was 21.4 nM under setting [1]; under 3.16 nM under setting [2]; under 3.16 nM under setting [3]; under 3.16 nM under setting [4]; under 3.16 nM under setting [5]. The viability, T/C was 81.5% (second compound 0.1 µM, first compound 0.00316 µM); 59.7% (second compound 0.1 µM, first compound 0.01 µM); 48.1% under setting [6]; 18% under setting [7]; 6.89% under setting [8]; 4.7% under setting [9]. The viability, T/C (second compound 0.316 µM, first compound 0.00316 µM) is 45.1%; the viability, T/C (second compound 0.316 µM, first compound 0.01 µM) is 40%; the viability, T/C under setting [10] was 29.5%; the viability, T/C under setting [11] is 12.2%; the viability, T/C under setting [12] is 5.71%; the viability, T/C under setting [13] is 4.51%. Further, the viability, T/C (second compound 1 µM, first compound 0.00316 µM) was 24.3%; the viability, T/C (second compound 1 µM, first compound 0.01 µM) was 18.7%; the viability, T/C under setting [14] was 14%; the viability, T/C under setting [15] is 8.53%; the viability, T/C under setting [16] was 5.57%; the viability, T/C under setting [17] is 4.27%. The viability, T/C was 15.1% (second compound 3.16 µM, first compound 0.00316 µM); 12.5% (second compound 3.16 µM, first compound 0.01 µM); 11.1% under setting [18]; 7.88% under setting [19]; 4.58% under setting [20]; 3.91% under setting [21]. Besides, the viability, T/C by setting is: (second compound 10 µM, first compound 0.00316 µM) 12.8%; (second compound 10 µM, first compound 0.01 µM) 11.5%; under setting [22], 10.3%; under setting [23], 6.13%; under setting [24], 4.33%; under setting [25], 4.03%.

As a reminder, the viability, T/C is the result in the treated group divided by that in the control group, in per cent. One may read the IC50 as the concentration needed to halve the response being measured.

For the origin of these results see PubChem BioAssay AID2060327 (Molecular Pharmacology Branch, DTP, NCI, 2025).
